In data set [1] the test system is HT-29 human colonic adenocarcinoma cells. The data set can be described thus: Sulforhodamine B Assay, tumor cell growth inhibition, HT-29. The following applies: for SELECTIVITY INDEX (HT-29 IC50 / PGE2 IC50): ratio of HT-29 IC50 to PGE2 IC50. It is filed as cell-based. The method, then:
The compounds of this invention were assayed for their effect on various cell lines representative of precancerous lesions to ascertain the degree of tumor growth inhibition following treatment with compounds of this invention. The cell lines employed for these experiments were well characterized, and are used by the United States National Cancer Institute in their screening program for new anti-cancer drugs. Growth inhibition of this cell line is thought to be indicative of a benefit on precancerous lesions and neoplasms.
Tumor cell cytotoxicity was assessed using the Sulforhodamine B Assay. In this assay, tumor cells were plated in 96-well plates and treated with drug-containing media for seven days (continuous exposure). At the end of the exposure period, the cells were fixed and stained with sulforhodamine B (a pink fluorescent dye). The dye was then solubilized, and the optical density of the resulting pink solution determined on a 96-well plate reader. The mean dye intensity of the treated wells was then divided by the mean dye intensity in the control wells (6 wells of each) to determine the effect of the drug on the cells. Dye intensity is proportional to the number of cells or amount of protein per well. The resultant "percent of control" value then represents the degree of growth inhibition caused by the drug.
For each experiment, an IC50 value was determined and used for comparative purposes. This value is equivalent to the concentration of drug needed to inhibit tumor cell growth by 50%. IC50 values were obtained graphically by connecting the mean values for each drug concentration tested. Each experiment included at least six wells per drug concentration. Concentration was plotted on a log scale on the X-axis.

Data set [2] deals with prostaglandin E2 (PGE2) production by differentiated HL-60 cells (anti-PG synthetase activity). The data set can be described thus: Inhibition of prostaglandin E2 (PGE2) production in differentiated HL-60 cells after A23187 stimulation (EIA). It counts as cell-based, human. The following applies: for IC50: Table III, differentiated HL-60, A23187 (5×10^-6 M) stimulation, read-out: (Anti-PG Synthetase activity) PGE2 I.C.50. As to the method:
Compounds of this invention, as well as several others (see Table II below), were evaluated to determine whether they inhibited the production of prostaglandin E2 (PGE2), according to the procedure below. […] Secreted […] is measured using an enzyme immunoassay (EIA) kit.
Specifically, HL-60 is a human promyelocytic cell line which may be differentiated in mature granulocytes in the presence of compounds such as dimethyl sulfoxide (DMSO). These cells are obtained from the American Type Culture Collection (ATCC:CCL240).
The differentiated HL-60 cells (3×10^6 cells/ml) are incubated for 15 min at 37° C. in the presence of the compounds listed in Table II at the desired concentration. Cells are then stimulated by A23187 (5×10^-6 M) for 15 min. Secreted PGE2 into the external medium is measured by EIA using a commercially available EIA kit.
The quantity of PGE2 secreted is expressed in ng/10^6 cells using a standard curve. Data are converted using a curve fitting of the four parameter logistic equation: [formula] […] The IC50 values are determined using Hill equation.

The test system of a further data set is prostaglandin synthesis. The following applies: background; cited from earlier work.
For data set [3] the following is noted: background; prophylactic use / conventional NSAIDs; cited from earlier work.
A further data set concerns polyps. The settings on record: patients; background; cited from earlier work.
The conditions of data set [4]: background; cited from earlier work.
Setting [5] is: Homo sapiens, Table II, cell line HT-29, read-out: IC50.
Where [6] appears, read: Homo sapiens, Table III, HT-29, read-out: (Anti-proliferative activity) HT-29 I.C.50.
Setting [7] is: Table II, cell line HT-29, read-out: IC50.
Setting [8] is: Table III, HT-29, read-out: (Anti-proliferative activity) HT-29 I.C.50.

“Also recorded” adds a separate entry of the source. Read-outs that look alike come from different tables or passages of the source.

With `CC12OC(=O)CC1(SC[C@H](N)C(=O)O)c1cc(F)ccc1/C2=C\c1ccc(S(C)(=O)=O)cc1` (mixture of isomers) [Example 32, rac-threo-(E)-1-(butan-1',4'-olido)-[3',4':1,2]-6-fluoro-2-methyl-3-(p-methylsulfonylbenzylidene)-1S-indanyl-L-cysteine], the IC50 in data set [1] (setting [5]) is 2.1 µM.

Take `CC(=O)N[C@@H](CSC12CC(=O)OC1(C)/C(=C/c1ccc(S(C)(=O)=O)cc1)c1ccc(F)cc12)C(=O)O` (mixture of isomers) [Example 33, rac-threo-(E)-1-(butan-1',4'-olido)-[3',4':1,2]-6-fluoro-2-methyl-3-(p-methylsulfonylbenzylidene)-1S-indanyl-N-acetylcysteine]: the IC50 in data set [1] (setting [5]) was 30 µM.

Take `CC12OC(=O)C=C1c1cc(F)ccc1/C2=C\c1ccc(S(C)(=O)=O)cc1` (racemic) [Example 3, rac-(E)-1-(2'-Buten-1',4'-olido)-[3',4':1,2]-6-fluoro-2-methyl-3-(p-methylsulfonylbenzylidene)-indan]: the “anti-proliferative activity (in words)” value in data set [1] is listed as “outstanding anti-proliferative activity”. For the same compound, the “anti-PG-synthetase / anti-prostaglandin activity (in words)” value in data set [2] is “essentially lacking anti-prostaglandin activity at therapeutic concentrations”.

Consider `CC12OC(=O)CC1(O)c1cc(F)ccc1/C2=C\c1ccc(S(C)(=O)=O)cc1` (racemic) [Example 11, rac-threo-(E)-1-Hydroxy-1-(butan-1',4'-olido)-[3',4':1,2]-6-fluoro-2-methyl-3-(p-methylsulfonylbenzylidene)-indan], for which, in data set [1] (Homo sapiens, Table II, cell line HT-29 p 135, read-out: IC50), the IC50 stood at 100 µM.

As for `CCN(CC)CCSC12CC(=O)OC1(C)/C(=C/c1ccc(S(C)(=O)=O)cc1)c1ccc(F)cc12` (racemic) [Example 12, rac-threo-(E)-1-(N,N'-diethylaminoethanethio)-1-(butan-1',4'-olido)-[3',4':1,2]-6-fluoro-2-methyl-3-(p-methylsulfonylbenzylidene)-indan], the IC50 in data set [1] (setting [6]) is 0.43 µM; in data set [2] (Homo sapiens) it was > 100 µM. Further, the “SELECTIVITY INDEX (HT-29 IC50 / PGE2 IC50)” value in data set [1] (Table III) is given as < 0.0043.

As for `CC12OC(=O)CC1(C#N)c1cc(F)ccc1/C2=C\c1ccc(S(C)(=O)=O)cc1` (racemic) [Example 13, rac-threo-(E)-1-Cyano-1-(butan-1',4'-olido)-[3',4':1,2]-6-fluoro-2-methyl-3-(p-methylsulfonylbenzylidene)-indan], the IC50 in data set [1] (Homo sapiens, Table II, cell line HT-29 p 136 (?), read-out: IC50) was > 50 µM.

For the compound `CC12OC(=O)C=C1c1cc(F)ccc1/C2=C\c1ccccc1` (racemic) [Example 27, rac-(E)-1-(2'-buten-1',4'-olido)-[3',4':1,2]-6-fluoro-2-methyl-3-benzylidene-indan], the IC50 in data set [1] (setting [5]) turned out to be 0.34 µM.

For `COc1cc(/C=C2\c3ccc(F)cc3C3=CC(=O)OC32C)cc(OC)c1OC` (racemic) [Example 28, rac-(E)-1-(2'-buten-1',4'-olido)-[3',4':1,2]-6-fluoro-2-methyl-3-(3,4,5-trimethoxybenzylidene)-indan], in data set [1] (setting [5]), the IC50 is 0.28 µM.

As for `COc1ccc2c(c1)C1=CC(=O)OC1(C)N2C(=O)c1ccc(Cl)cc1` (racemic) [Example 36, rac-3-(2'-Buten-1',4'-olido)-[3',4':3,2]-1-(4-chlorobenzoyl)-5-methoxy-2-methyl-2,3-dihydroindole], the results for the IC50 in data set [1] (setting [5]), in data set [1] (setting [6]) and in data set [2] (Homo sapiens) were 2 µM, 2 µM and 0.08 µM, respectively. Further, in data set [1] (Table III), the “SELECTIVITY INDEX (HT-29 IC50 / PGE2 IC50)” value is 25.

Turning to `C[C@@]12OC(=O)C[C@]1(SCC(=O)O)c1cc(F)ccc1/C2=C\c1ccc(S(C)(=O)=O)cc1` (relative stereo) [Example 31, rac-threo-(E)-1-(butan-1',4'-olido)-[3',4':1,2]-6-fluoro-2-methyl-3-(p-methylsulfonylbenzylidene)-1S-indanyl-mercaptoacetic acid], the IC50 in data set [1] (setting [5]) is 50 µM.

For the compound `CCN(CC)CCS[C@]12CC(=O)O[C@@]1(C)N(C(=O)c1ccc(Cl)cc1)c1ccc(OC)cc12` (relative stereo) [Example 37, rac-threo-3-(Butan-1',4'-olido)-[3',4':3,2]-3-(N,N'-diethylaminoethanethio)-1-(4-chlorobenzoyl)-5-methoxy-2-methyl-2,3-dihydroindole], in data set [1] (setting [5]), the IC50 came out at 29 µM.

On to `CC1=C(CC(=O)O)c2cc(F)ccc2/C1=C\c1ccc(S(C)(=O)=O)cc1` [Sulfone, reference compound], for which, in data set [1] (Table III), the “SELECTIVITY INDEX (HT-29 IC50 / PGE2 IC50)” value stood at 1.19. For the same compound, the “inhibition of prostaglandin synthesis (in words)” value with prostaglandin synthesis is “inactive as an inhibitor of prostaglandin synthesis”.

Turning to `CSc1ccc(/C=C2/C(C)=C(CC(=O)O)c3cc(F)ccc32)cc1` [Sulindac Sulfide, reference compound], the “anti-proliferative activity (in words)” value in data set [1] is listed as “good anti-proliferative activity”. For the same compound, the “anti-PG-synthetase / anti-prostaglandin activity (in words)” value in data set [2] is on record as “high degree of anti-PG-synthetase activity”. In data set [2] (Homo sapiens, HL-60, read-out: inhibit PGE2 production), the inhibition at 10 µM was 100%. In the data set with prostaglandin synthesis, the “inhibition of prostaglandin synthesis (in words)” value is listed as “active moiety as a prostaglandin inhibitor”. In addition, the “side effects (in words)” value in data set [3] is given as “associated with the side effects of conventional NSAIDs”.

Consider `CC1=C(CC(=O)O)c2cc(F)ccc2/C1=C\c1ccc([S+](C)[O-])cc1` (centres unmarked) [Sulindac], for which, in the data set on polyps, the “effect on polyps (in words)” value is “Polyps virtually disappear”. Further, in data set [4], the “metabolism (in words)” value is “converted by liver enzymes to the corresponding sulfide; also recorded: metabolized to sulfone compound”.

As to “rac-ribo-(E)-1-Triazolo-[2',3':1",3"]-1-(butan-1',4'-olido)-[3',4':1,2]-6-fluoro-2-methyl-3-(methylsulfonylbenzylidene)-indan [Example 29]”, the results for the IC50 in data set [1] (setting [7]), in data set [1] (setting [8]) and in data set [2] were 2.4 µM, 2.4 µM and 1.5 µM, respectively. Moreover, the “SELECTIVITY INDEX (HT-29 IC50 / PGE2 IC50)” value in data set [1] (Table III) was found to be 1.6.

In the case of “rac-threo-(E)-1-(butan-1',4'-olido)-[3',4':1,2]-6-fluoro-2-methyl-3-(p-methylsulfonylbenzylidene)-1S-indanyl-glutathione [Example 34]”, the IC50 in data set [1] (setting [7]) was 3.6 µM; in data set [1] (setting [8]), 3.6 µM; in data set [2], > 100 µM. Further, in data set [1] (Table III), the “SELECTIVITY INDEX (HT-29 IC50 / PGE2 IC50)” value is recorded as < 0.036.

Turning to “rac-threo-(E)-1-N,N-Diethylamino-1-(butan-1',4'-olido)-[3',4':1,2]-6-fluoro-2-methyl-3-(p-methylsulfonylbenzylidene)-indan [Example 30]”, the IC50 in data set [1] (setting [7]) is 0.35 µM; in data set [1] (setting [8]) it was 0.35 µM; in data set [2], > 100 µM. Further, in data set [1] (Table III), the “SELECTIVITY INDEX (HT-29 IC50 / PGE2 IC50)” value was < 0.0035.

(Values after US5776962A, “Lactone compounds for treating patient with precancerous lesions” (priority 1995, dated 1998).)
